Read-outs that look alike come from different tables or passages of the source.
Legend:
[1] = biological target: KRAS (G12D)::SOS1 (Homo sapiens (Human), UniProt P01116, G12D); assay: KRAS::SOS1 AlphaScreen binding assay, KRAS G12D
Procedure, shortened: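 Compounds (up to 100 μM, eleven fivefold dilutions in duplicate) were incubated 30 min with KRAS 1-169 (10 nM, or 7.5 nM for G12C), GST-SOS1 564-1049 (5 nM for G12D/G12C, 10 nM for others) and 10 μM GDP in PBS buffer with BSA and Tween. Donor/acceptor beads were then added for 60 min at room temperature, and IC50 came from a 4-parameter fit of the AlphaScreen signal.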

[2] = tested on: AsPC-1 cells; assay: AsPC-1 CTG proliferation assay (120 h) (pancreatic cancer, G12D); format: cell-based
Procedure, shortened: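 AsPC-1 cells (KRAS G12D), 2000/well in RPMI with 10% FCS, seeded overnight, then treated with compound for 120 h at 37 °C. Viability by CellTiter-Glo luminescence as percent of DMSO control. IC50 from a four-parameter non-linear fit.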

[3] = tested on: NCI-H2122 cells; assay: NCI-H2122 CTG proliferation assay (120 h) (NSCLC, G12C); format: cell-based
Procedure, shortened: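 NCI-H2122 cells (KRAS G12C NSCLC), 200 per well in RPMI with 10% FCS, were dosed with compound on day 1 and incubated 120 h at 37 °C. Viability was read by CellTiter-Glo luminescence as percent of DMSO control, and IC50 was fitted with a four-parameter model.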

KRAS (G12D)::SOS1, sequence (P01116 other isoform, or with tags, fused parts or gaps G12D): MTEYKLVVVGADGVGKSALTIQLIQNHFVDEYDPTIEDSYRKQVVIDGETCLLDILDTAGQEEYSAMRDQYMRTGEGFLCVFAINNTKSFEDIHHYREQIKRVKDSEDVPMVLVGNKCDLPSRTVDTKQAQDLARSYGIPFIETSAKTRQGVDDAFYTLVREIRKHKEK

Compound	IC50 [1]	IC50 ([2]; Homo sapiens, ASPC1)	IC50 ([3]; Homo sapiens)	IC50 [2]	IC50 [3]
CO[C@@H]1C[C@@H]([C@H](C)Oc2cc(-c3ccn(C)n3)nc(-c3onc4c3CCC[C@@]43CCCc4sc(N)c(C#N)c43)n2)N(C)C1 [I-23]	7 nM	8160 nM	8830 nM	–	–
C[C@H](Oc1cc(N2C[C@H](C)N(C)[C@@H](C)C2)nc(-c2onc3c2CCC[C@@]32CCCc3sc(N)c(C#N)c32)n1)[C@@H]1CCCN1C [I-43]	1 nM	1000 nM	1410 nM	–	–
C[C@H](Oc1cc(-c2ccn([C@H]3CCCOC3)n2)nc(-c2noc3c2CCC[C@@]32CCCc3sc(N)c(C#N)c32)n1)[C@@H]1CCCN1C [II-42]	2 nM	1890 nM	357 nM	–	–
C[C@H](Oc1cc(N2CCN(C)C3(CCC3)C2)nc(-c2onc3c2CCC[C@@]32CCCc3sc(N)c(C#N)c32)n1)[C@@H]1CCCN1C [I-44]	2 nM	980 nM	1270 nM	–	–
C[C@H](Oc1cc(N2CC[C@H](N3CCCCC3)C2)nc(-c2noc3c2CCC[C@@]32CCCc3sc(N)c(C#N)c32)n1)[C@@H]1CCCN1C [II-12]	1 nM	544 nM	1390 nM	–	–
C[C@H](Oc1cc(N2CC[C@H](N3CCCC3)C2)nc(-c2noc3c2CCC[C@@]32CCCc3sc(N)c(C#N)c32)n1)[C@@H]1CCCN1C [II-14]	1 nM	245 nM	1390 nM	–	–
Cc1ccc(-c2cc(O[C@@H](C)[C@@H]3CCCN3C)nc(-c3onc4c3CCC[C@@]43CCCc4sc(N)c(C#N)c43)n2)cn1 [I-28]	10 nM	3420 nM	2600 nM	–	–
C[C@H](Oc1cc(-c2ccn(C)n2)nc(-c2onc3c2CCC[C@@]32CCCc3sc(N)c(C#N)c32)n1)[C@@H]1CCCN1C [I-21]	4 nM	–	–	2980 nM	1430 nM
C[C@H](Oc1cc(N2CCN(CCO)CC2)nc(-c2noc3c2CCC[C@@]32CCCc3sc(N)c(C#N)c32)n1)[C@@H]1CCCN1C [II-8]	1 nM	2730 nM	933 nM	–	–
C[C@H](Oc1cc(N2CC3CCC(C2)N3)nc(-c2noc3c2CCC[C@@]32CCCc3sc(N)c(C#N)c32)n1)[C@@H]1CCCN1C [II-34]	1 nM	1420 nM	9010 nM	–	–
C[C@H](Oc1cc(N2CCN(C)CC2)nc(-c2noc3c2CCC[C@@]32CCCc3sc(N)c(C#N)c32)n1)[C@@H]1CCCN1[C@@H]1CCOC1 [II-39]	1 nM	1760 nM	3600 nM	–	–
C[C@H](Oc1cc(-n2ccc(C(=O)NC3COC3)n2)nc(-c2noc3c2CCC[C@@]32CCCc3sc(N)c(C#N)c32)n1)[C@@H]1CCCN1C [II-25]	2 nM	891 nM	33 nM	–	–
C[C@H](Oc1cc(-n2ccnn2)nc(-c2onc3c2CCC[C@@]32CCCc3sc(N)c(C#N)c32)n1)[C@@H]1CCCN1C [I-32]	2 nM	4440 nM	1510 nM	–	–
C[C@H](Oc1cc(N2CCNC3(CCCC3)C2)nc(-c2noc3c2CCC[C@@]32CCCc3sc(N)c(C#N)c32)n1)[C@@H]1CCCN1C [II-41]	1 nM	269 nM	1650 nM	–	–
C[C@H](Oc1nc(-c2noc3c2CCC[C@@]32CCCc3sc(N)c(C#N)c32)cc(N2C[C@H](C)N[C@@H](C)C2)n1)[C@@H]1CCCN1C [II-46]	1 nM	2740 nM	900 nM	–	–
C[C@H](Oc1cc(-c2ccn(C[C@@H]3CCCO3)n2)nc(-c2noc3c2CCC[C@@]32CCCc3sc(N)c(C#N)c32)n1)[C@@H]1CCCN1C [II-43]	2 nM	2050 nM	102 nM	–	–
C[C@H](Oc1cc(N2CC[C@@H](N(C)C)C2)nc(-c2noc3c2CCC[C@@]32CCCc3sc(N)c(C#N)c32)n1)[C@@H]1CCCN1C [II-47]	1 nM	991 nM	2020 nM	–	–
C[C@H](Oc1cc([C@@H]2CCOC2)nc(-c2onc3c2CCC[C@@]32CCCc3sc(N)c(C#N)c32)n1)[C@@H]1CCCN1C [I-22]	1 nM	650 nM	10200 nM	–	–
C[C@H](Oc1cc(-c2ccc(N)nc2)nc(-c2onc3c2CCC[C@@]32CCCc3sc(N)c(C#N)c32)n1)[C@@H]1CCCN1C [I-25]	5 nM	3450 nM	1650 nM	–	–
C[C@H](Oc1cc(-n2ccc(C(=O)N3CCCC3)n2)nc(-c2noc3c2CCC[C@@]32CCCc3sc(N)c(C#N)c32)n1)[C@@H]1CCCN1C [II-19]	1 nM	870 nM	19 nM	–	–
C[C@@H]1CN(c2cc(O[C@@H](C)[C@@H]3CCCN3C)nc(-c3noc4c3CCC[C@@]43CCCc4sc(N)c(C#N)c43)n2)C[C@H](C)N1 [II-36]	1 nM	990 nM	3480 nM	–	–
C[C@H](Oc1cc(N2CCNCC2)nc(-c2noc3c2CCC[C@@]32CCCc3sc(N)c(C#N)c32)n1)[C@@H]1CCCN1C [II-45]	1 nM	2310 nM	10600 nM	–	–
Cc1nc(-c2cc(O[C@@H](C)[C@@H]3CCCN3C)nc(-c3onc4c3CCC[C@@]43CCCc4sc(N)c(C#N)c43)n2)cs1 [I-24]	2 nM	3450 nM	930 nM	–	–
C[C@H](Oc1cc(N2CCN(C)C3(COC3)C2)nc(-c2noc3c2CCC[C@@]32CCCc3sc(N)c(C#N)c32)n1)[C@@H]1CCCN1C [II-13]	1 nM	251 nM	5020 nM	–	–
C[C@H](Oc1cc(-n2ccnc2)nc(-c2onc3c2CCC[C@@]32CCCc3sc(N)c(C#N)c32)n1)[C@@H]1CCCN1C [I-20]	2 nM	5420 nM	1360 nM	–	–

Continued by falling IC50 [1], values first:

IC50 [1]	IC50 ([2]; Homo sapiens, ASPC1)	IC50 ([3]; Homo sapiens)	Compound	IC50 [2]	IC50 [3]
22 nM	5070 nM	9480 nM	C[C@H](Oc1cc(-c2cnn(C)n2)nc(-c2noc3c2CCC[C@@]32CCCc3sc(N)c(C#N)c32)n1)[C@@H]1C[C@@H](F)CN1C [II-28]	–	–
3 nM	2120 nM	599 nM	C[C@H](Oc1cc(-c2cnsc2)nc(-c2onc3c2CCC[C@@]32CCCc3sc(N)c(C#N)c32)n1)[C@@H]1CCCN1C [I-27]	–	–
3 nM	5900 nM	4120 nM	C[C@H](Oc1cc(Cl)nc(-c2onc3c2CCC[C@@]32CCCc3sc(N)c(C#N)c32)n1)[C@@H]1CCCN1C [I-1]	–	–
2 nM	811 nM	8440 nM	C[C@H](Oc1cc(N2C[C@@H](N(C)C)[C@@H](O)C2)nc(-c2noc3c2CCC[C@@]32CCCc3sc(N)c(C#N)c32)n1)[C@@H]1CCCN1C [II-10]	–	–
2 nM	713 nM	4800 nM	CN[C@H]1CCN(c2cc(O[C@@H](C)[C@@H]3CCCN3C)nc(-c3noc4c3CCC[C@@]43CCCc4sc(N)c(C#N)c43)n2)C1 [II-35]	–	–
1 nM	385 nM	3300 nM	C[C@H](Oc1cc(N2CCNC(C)(C)C2)nc(-c2noc3c2CCC[C@@]32CCCc3sc(N)c(C#N)c32)n1)[C@@H]1CCCN1C [II-32]	–	–
1 nM	261 nM	1420 nM	C[C@H](Oc1cc(N2CCNC3(CCC3)C2)nc(-c2noc3c2CCC[C@@]32CCCc3sc(N)c(C#N)c32)n1)[C@@H]1CCCN1C [II-40]	–	–
1 nM	273 nM	3370 nM	C[C@H](Oc1cc(N2CCNC3(CCC3)C2)nc(-c2onc3c2CCC[C@@]32CCCc3sc(N)c(C#N)c32)n1)[C@@H]1CCCN1C [I-3]	–	–
1 nM	64 nM	3750 nM	C[C@H](Oc1cc(N2CCNC3(COC3)C2)nc(-c2onc3c2CCC[C@@]32CCCc3sc(N)c(C#N)c32)n1)[C@@H]1CCCN1C [I-4]	–	–
1 nM	213 nM	2590 nM	C[C@H](Oc1cc([C@H]2CCN(C)C2)nc(-c2noc3c2CCC[C@@]32CCCc3sc(N)c(C#N)c32)n1)[C@@H]1CCCN1C [II-38]	–	–
1 nM	1430 nM	3510 nM	C[C@H](Oc1cc(N2C[C@@H](N(C)C)[C@@H](F)C2)nc(-c2noc3c2CCC[C@@]32CCCc3sc(N)c(C#N)c32)n1)[C@@H]1CCCN1C [II-11]	–	–

Reference: patent US20240174690A1, “ANNULATED 2-AMINO-3-CYANO THIOPHENES AND DERIVATIVES FOR THE TREATMENT OF CANCER” (BOEHRINGER INGELHEIM INTERNATIONAL GMBH, priority 2021, published 2024)
